# Experimental data as given in EP0137083A1, “1,5-Benzothiazepine derivatives and production thereof” (HAMARI YAKUHIN KOGYO KABUSHIKI KAISHA also known as HAMARI …, priority 1983, dated 1985).
# Key:
# Format in all cases: in vivo
# [1] = tested on: writhing syndrome; assay: Analgesic activity, mouse anti-writhing method (acetic acid-induced writhing); conditions: mice, I.P., 45 minutes before acetic acid
# Protocol: (2) Analgestic Activity (Mouse Anti-Writhing Method)
# Groups of 5 mice each, weighing 26 - 32 g, were treated intraperitoneally with the compounds. The method is based on the antagonism of a writhing syndrome (abnormal contraction and twisting of the body) produced by the intraperitoneal injection of 10 ml/kg of 0.7 X acetic acid-saline solution. Ten minutes after the acetic acid injection, the number of writhes observed in a 10 minute counting period was recorded. The compound was administered 45 minutes before the acetic acid injection.
# [2] = tested on: Mice; assay: Minimum lethal dose test in mice (mortality after intraperitoneal dosing); conditions: I.P.; for No. of dead Animals, Day of test 0 / No. of dead Animals, Day of test 1 / No. of dead Animals, Day of test 2 / No. of dead Animals, Total: 2 animals
# Protocol: (1) Minimum Lethal Dose Test in Mice
# Groups of 2 mice each, weighing 29 - 36 g, were treated intraperitoneally with the compound and observed for signs of - central, autaonomic and toxic responses for 5 hours. Mortality counts were made on days 0, 1 and 2 (day 0 is the dosing day).
# [3] = tested on: Yeast-induced Pyresis in Rats; assay: Anti-pyretic activity, temperature regulation in yeast-induced pyretic rats; conditions: I.P.; for Rectal Temperature (C^o, Mean+ S.D.), Time after Treatment (hour) 0: 0 hour (just prior to drug administration); for Rectal Temperature (C^o, Mean+ S.D.), Time after Treatment (hour) 0.5: 0.5 hour; for Rectal Temperature (C^o, Mean+ S.D.), Time after Treatment (hour) 1.0: 1.0 hour; for Rectal Temperature (C^o, Mean+ S.D.), Time after Treatment (hour) 1.5: 1.5 hour; for Rectal Temperature (C^o, Mean+ S.D.), Time after Treatment (hour) 2.0: 2.0 hour; for Rectal Temperature, Change C^o: average at 0.5-2.0 hours versus vehicle (39.8)
# Protocol: (3) Anti-pyretic Activity (Temperature Regulation in Pyretic Rats) Rats, weighing 220 - 300 g, were treated subcutaneously in the nape of the neck with 6 ml of 40 % suspension of dried Brewer's yeast in distilled water. Groups of 3 rats were treated intraperitoneally with the compound 17 hours challenge. Rectal temperature were recorded with a thermister type thermometer (Type BMA-77 produced by Natsume Seisalusho, Japan) just prior to the drug administration and at 30 minutes intervals for 2 hours.
# [4] = 30 mg/kg, first series (vehicle 10.9 ± 8.9)
# [5] = 60 mg/kg, first series (vehicle 10.9 ± 8.9)
# [6] = 60 mg/kg, second series (vehicle 12.8 ± 6.3)
structure (smiles),measurement,setting,value
"CC(C)=CCN1CCC2(C)c3cc(O)ccc3CC1C2C (centres unmarked) [Pentazo-cine, reference compound]",% Change from Control,[1]; [4],-83.5%
same,No. of Writhes (Mean + S.D.),[1]; [4],1.8 ± 2.2
"COc1ccc(C2Sc3ccccc3N(CCN(C)C)C(=O)C2=O)cc1 (centres unmarked) [Ia, 2-(4-methoxyphenyl)-2,3-dihydro-5-(2-dimethylaminoethyl)-1,5-benzothiazepine-3,4(5H)-dione]","No. of dead Animals, Day of test 0",[2]; 10 mg/kg,0
same,"No. of dead Animals, Day of test 1",[2]; 10 mg/kg,0
same,"No. of dead Animals, Day of test 2",[2]; 10 mg/kg,0
same,"No. of dead Animals, Total",[2]; 10 mg/kg,0
same,"No. of dead Animals, Day of test 0",[2]; 30 mg/kg,0
same,"No. of dead Animals, Day of test 1",[2]; 30 mg/kg,0
same,"No. of dead Animals, Day of test 2",[2]; 30 mg/kg,0
same,"No. of dead Animals, Total",[2]; 30 mg/kg,0
same,"No. of dead Animals, Day of test 0",[2]; 100 mg/kg,0
same,"No. of dead Animals, Day of test 1",[2]; 100 mg/kg,0
same,"No. of dead Animals, Day of test 2",[2]; 100 mg/kg,0
same,"No. of dead Animals, Total",[2]; 100 mg/kg,0
same,"No. of dead Animals, Day of test 0",[2]; 300 mg/kg,2
same,"No. of dead Animals, Total",[2]; 300 mg/kg,2
same,Minimum Acute Lethal Dose,"[2]; mortality counted on days 0, 1 and 2",300 mg/kg
same,"Rectal Temperature, Average at 0.5-2.0 Hours Post-tretment",[3]; 60 mg/kg,38.7 C^o
same,"Rectal Temperature (C^o, Mean+ S.D.), Time after Treatment (hour) 0",[3]; 60 mg/kg,39.7±0.15 C^o
same,"Rectal Temperature (C^o, Mean+ S.D.), Time after Treatment (hour) 0.5",[3]; 60 mg/kg,38.4±0.57 C^o
same,"Rectal Temperature (C^o, Mean+ S.D.), Time after Treatment (hour) 1.0",[3]; 60 mg/kg,38.4±0.35 C^o
same,"Rectal Temperature (C^o, Mean+ S.D.), Time after Treatment (hour) 1.5",[3]; 60 mg/kg,38.8±0.49 C^o
same,"Rectal Temperature (C^o, Mean+ S.D.), Time after Treatment (hour) 2.0",[3]; 60 mg/kg,39.0±0.51 C^o
same,"Rectal Temperature, Change C^o",[3]; 60 mg/kg,-1.1 C^o
same,% Change from Control,[1]; [5],-92.7%
same,No. of Writhes (Mean + S.D.),[1]; [5],0.8 ± 1.3
same,% Change from Control,[1]; [6],-100.0%
same,No. of Writhes (Mean + S.D.),[1]; [6],0.0 ± 0.0
"Cc1c(N(C)C)c(=O)n(-c2ccccc2)n1C [Amino-pyrin, reference compound]","Rectal Temperature, Average at 0.5-2.0 Hours Post-tretment",[3]; 30 mg/kg,37.5 C^o
same,"Rectal Temperature (C^o, Mean+ S.D.), Time after Treatment (hour) 0",[3]; 30 mg/kg,39.6±0.10 C^o
same,"Rectal Temperature (C^o, Mean+ S.D.), Time after Treatment (hour) 0.5",[3]; 30 mg/kg,38.1±0.50 C^o
same,"Rectal Temperature (C^o, Mean+ S.D.), Time after Treatment (hour) 1.0",[3]; 30 mg/kg,37.2±0.58 C^o
same,"Rectal Temperature (C^o, Mean+ S.D.), Time after Treatment (hour) 1.5",[3]; 30 mg/kg,37.2±0.53 C^o
same,"Rectal Temperature (C^o, Mean+ S.D.), Time after Treatment (hour) 2.0",[3]; 30 mg/kg,37.4±0.46 C^o
same,"Rectal Temperature, Change C^o",[3]; 30 mg/kg,-2.3 C^o
